Results: US20240139197A1, “INHIBITION OF KDM5A FOR PROMOTING ANTIGEN PRESENTATION, INCREASING CD8+ T CELL INFILTRATION AND BOOSTING ANTI-TUMOR IMMUNE RESPONSE” (The Wistar Institute of Anatomy and Biology, priority 2022, published 2024)

Tests used:
Assay type in all cases: cell-based, mouse
[1] = tested on: H2-K1 on ID8 cells; experiment: cell surface MHC class I H2-K1 by FACS, ID8; settings: ID8, in response to IFNγ
Excerpt: (§1) FIG. 4A-FIG. 4M show KDM5A regulates antigen processing and presentation pathway. (FIG. 4A) Experimental strategy used to identify Kdm5a direct target genes. […] (FIG. 4B) CUT&RUN tracks of the newly identified Kdm5a target gene H2-K1 for Kdm5a and H3K4me3 in ID8 cells. (FIG. 4C) Expression of H2-K1 in doxycycline-inducible shKdm5a ID8 cells, Kdm5a inhibitor CPI-455, or Kdm5a knockout cells with or without IFNγ stimulation determined by RT-qPCR. (FIG. 4D) Cell surface expression of H2-K1 in control and Kdm5a knockout ID8 cells with or without IFNy stimulation was determined by FACS analysis. (FIG. 4E) Quantification of FIG. 4D. (FIG. 4F) Cell surface expression of H2-K1 in control and doxycyclineinducible Kdm5a-knockdown ID8 cells with or without IFNγ stimulation was determined by FACS analysis. (FIG. 4G) Quantification of FIG. 4F. (FIG. 4H) Cell surface expression of H2-K1 in D8 cells treated with vehicle or CPI-455 with or without IFNγ stimulation was determined by FACS analysis. (FIG. 4I) Quantification of FIG. 4H; An isotype matched IgG was used as a negative control for all the FACS analysis. […] Data represent mean±SEM of three biological repeats; P-value was calculated by using a two-tailed Student t test except in FIG. 4L by using Pearson r analysis test and FIG. 4M by using Fisher's exact test. […]

[2] = tested on: H3K4me3 in HGS2 cells; experiment: immunoblot of H3K4me3, HGS2; settings: HGS2, 10 μM, 72 hours
Experimental: FIG. 6A-FIG. 6K show KDM5A inhibition promotes anti-tumor immune response in vivo. (FIG. 6A) Expression of H3K4me3, Kdm5a and a loading control b-actin in an independent second doxycycline-inducible shKdm5a ID8 clone treated with or without 2 μg/mL of doxycycline. (FIG. 6B) Same as FIG. 6A, but doxycycline-inducible shKdm5a ID8 cells were plated into 24 well plates and treated with 2 μg/mL of doxycycline the same day. Cells were incubated for 8 days. Relative cell viability was determined by colony formation assay. (FIG. 6C) Expression of H3K4me3, Kdm5a and a loading control b-actin in HGS2 cells treated 10 μM of CPI-455 or vehicle controls for 72 hours. […] Relative cell viability was determined by colony formation assay. (FIG. 6E-FIG. 6F) Bioluminescence signal was measured by IVIS system in indicated animal groups in the immunocompetent C57BL/6 mouse model once a week (FIG. 6E) and the survival of the indicated groups was determined by Kaplan-Meier survival curves (FIG. 6F) (n=5 mice per group). […] Ascites volumes produced from the indicated groups were quantified (FIG. 6H). n=5 mice per group. […] (FIG. 6J-FIG. 6K) Bioluminescence signal was measured by IVIS system in indicated animal groups in the immunocompromised NSG mouse model once a week (FIG. 6J), or examined for Kaplan-Meier survival curves for the indicated groups (FIG. 6K). […]

[3] = tested on: H2-K1 in ID8 cells; experiment: H2-K1 expression by RT-qPCR; settings: ID8, with IFNγ treatment
Excerpt: as §1

Q: What does the source list for CPI-455?
A: MHC class I presence on cell surface [1]: increased MHC class I presence on cell surface; H3K4me3 levels [2]: increase H3K4me3 levels; expression of H2-K1 [3]: upregulated
